Experimental data reported in patent US20250262308A1, “Compositions and Methods for Modulating Dopamine Receptor Activity” (The Regents of the University of California, priority 2022, published 2025).

What was measured:
D2R = target: T1, D2R (Homo sapiens, UniProt P14416); test: GIRK activation assay, whole-cell patch clamp, HEK293T co-transfected with M, D2R and GIRK1 (F137S); assay type: cell-based; conditions: for photo-agonism of D2R (GIRK inward current): P tethered to M, compared with saturating dopamine (1 μM)
T1 construct: expressed in transfected cells; host or cells: HEK293T
T1 sequence (P14416 whole entry): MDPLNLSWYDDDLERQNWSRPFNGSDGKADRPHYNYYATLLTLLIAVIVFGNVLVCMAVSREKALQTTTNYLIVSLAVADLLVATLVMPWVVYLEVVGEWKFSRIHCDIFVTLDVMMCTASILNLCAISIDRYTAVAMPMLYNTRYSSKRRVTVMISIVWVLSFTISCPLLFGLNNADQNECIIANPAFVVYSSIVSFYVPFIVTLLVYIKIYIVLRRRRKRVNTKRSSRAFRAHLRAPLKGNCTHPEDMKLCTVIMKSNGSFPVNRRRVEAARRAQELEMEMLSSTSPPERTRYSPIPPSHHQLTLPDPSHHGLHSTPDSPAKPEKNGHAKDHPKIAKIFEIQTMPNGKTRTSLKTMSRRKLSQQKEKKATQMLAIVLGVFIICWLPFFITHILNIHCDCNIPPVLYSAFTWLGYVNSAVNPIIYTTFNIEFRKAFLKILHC
Method: D2R photo-activation was evaluated in a G protein-activated inwardly rectifying K^+ channel (GIRK) activation assay. The M anchoring protein was re-designed by substituting the SNAP-tag at its external N-terminal with a HALO-tag (FIG. 3A). HEK293T were co-transfected with M, D2R and the homotetramerizing mutant of GIRK1 (F137S), making it possible to detect D2R activation as Gi/o-dependent GIRK inward-current at high external K^+ and negative holding potential. Transfected cells were patch clamped in whole-cell configuration and alternately irradiated with 440 nm light or perfused with a saturating (1 μM) concentration of dopamine to elicit maximal D2R activation.
(A) Schematic representation of D2R activation by MP-D2ago in response to light. (B, C) Representative traces of MP-D2ago with one (1×; B) or two (2×; C) branch points. (D) Summary of the maximal photo-activation of D2R by MP-D2ago relative to a saturating concentration of DA (1 μM). […] Summary of the activation and deactivation kinetics (E) and light sensitivity (F) of D2R in response to 1× or 2×MP-D2ago.
To complement our cell-targeted D2R photo-agonist, a tethered photo-antagonist for D2R was designed. The same photoswitch architecture was employed; however, in this case, one of two substituted phenyl piperazines was used as a head group (FIG. 5A). Two variant phenyl piperazines, 2,3-dichloro- and 2-methoxy-phenylpiperazine, were chosen as the core scaffold. To each of these, we appended a 3-carbon (C3) linker followed by the same PEG- and HALO substrate employed in the synthesis of P-D2ago, thereby generating potential photo-antagonists. […] A 4-carbon linker at this position was tested.
FIG. 5A-5G: Evaluation of phenylpiperazine-based MPs of D2R in HEK293T cells. A) Chemical structures of P-D2 constructs used to label the M protein. B) Schematic representation MP-D2block,C3 and MP-D2pa,C3 activity under light irradiation. CD) Patch clamp electrophysiology traces of tethered partial agonists. E) Schematic representation of dopamine blocking by MP-D2block under light irradiation. F,G) Patch clamp electrophysiology traces of tethered D2 antagonist.

[1] = UV/Vis photophysical characterization of the photoswitch; assay type: physicochemical
Method: FIG. 2A-2E. Synthesis of P-D2ago and photophysical characterization. A) Chemical Synthesis of P-D2ago. B) UV Vis absorbance spectra of P-D2ago (20 μM in DMSO, 24° C.) in the dark and under 415 nm irradiation. C) Wavelength scan for P-D2ago (20 μM, DMSO, 24° C.). Each wavelength is applied for 2 minutes. […] E) Thermal relaxation of P-D2ago in DMSO after 1 minute irradiation with 415 nm at 37° C. F) Synthesis of branched, photoswitchable amino indenyl dimer P-D2ago-2X.
UV Vis data were analyzed and plotted using […] Prism. Irradiation was achieved from the top of the cuvette through a fiber-optic cable. […] Absorbance (reported as Abs, in arbitrary units) was measured at 420 nm over time. Thermal Relaxation was measured after 1 min irradiation with 415 nm at 10 or 20 μM, and subsequently absorption increase was detected at 420 nm. The relaxation half-live of the cis-isomer was determined by curve fitting, using exponential one-phase decay in […] Prism. Photostationary states were determined by pre-irradiation of samples (20 uM, DMSO) for 10 min at the respective wavelengths. Samples for LCMS separation were prepared under red-light conditions in amber vials and immediately subjected to LCMS.
FIG. 8A-8E: Photophysical Characterization of P-D1block(24) A) UV Vis absorption spectra of dark-adapted (100% trans) P-D1block(24) in DMSO (20 μM), and after preirradiation with 370/460 nm for 10 min. […] C) Photostationary state (PSS) of P-D1block(24) in DMSO (20 μM, 24° C.), after preirradiation with 360/420 nm for 10 min. Detection of PSS was achieved by LCMS by separation of isomers and integration of Abs at the isosbestic point of cis- and trans-isomers at the respective elution solvent mixtures. D, E) Thermal relaxation of P-D1block(24) in 10% DMSO in PBS and 100% DMSO at 37° C., detection of Abs at 340 nm after pre-irradiation of the samples for 10 min at 360 nm.

SMILES	photo-agonism of D2R (GIRK inward current) (D2R; 440 nm light)	photo-antagonism of D2R activation by dopamine (D2R; tethered to M, 440 nm light, 1 uM dopamine)	sensitivity to light, greater than P-D2ago (D2R; tethered to M) [fold]	activation kinetics, faster than P-D2ago (D2R; tethered to M, 440 nm light) [fold]	reversible switching ([1]; 20 μM in DMSO, alternating irradiation)	thermal back-relaxation in aqueous environment ([1]; 10% DMSO in PBS)	absorption maximum ([1]; UV/Vis, 20 μM in DMSO, 24° C.) [nm]	wavelength of maximal switching into the cis-form (maximum PSS) ([1]; wavelength scan, 20 μM, DMSO, 24° C.) [nm]
COc1ccccc1N1CCNCC1 [2-methoxy-phenylpiperazine]	very weak partial agonism	very weak antagonism						
CCCN(CCCCNc1ccc(/N=N/c2ccc(NC(=O)CCOCCOCCOCCOCCOCCOCCOCCOCCOCCOCCOCCOCCOCCOCCOCCOCCOCCOCCOCCOCCOCCOCCOCCOCCNC(=O)CCC(NC(=O)CCC(=O)NCCOCCOCCCCCCCl)C(=O)NCCOCCOCCOCCOCCOCCOCCOCCOCCOCCOCCOCCOCCOCCOCCOCCOCCOCCOCCOCCOCCOCCOCCOCCOCCC(=O)Nc3ccc(/N=N/c4ccc(NCCCCN(CCC)C5Cc6ccccc6C5)cc4)cc3)cc2)cc1)C1Cc2ccccc2C1 (stereo not shown) [2X-P-D2ago]	same maximal activation		~5	~2				
CCCN(CCCCNc1ccc(/N=N/c2ccc(NC(=O)CCOCCOCCOCCOCCOCCOCCOCCOCCOCCOCCOCCOCCOCCOCCOCCOCCOCCOCCOCCOCCOCCOCCOCCOCCNC(=O)CCC(=O)NCCOCCOCCCCCCCl)cc2)cc1)C1Cc2ccccc2C1 [P-D2ago]	full photo-agonism				without fatigue	exceeds the detection limit	424	440
